Values quoted from earlier work as cited in US12582603B2 (NTC S.r.l., priority 2017, dated 2026).

Conditions: at a pH of 6.4

In the case of Brc1c(N=C2NCCN2)ccc2nccnc12.O=C(O)C(O)C(O)C(=O)O [Brimonidine, 5-Bromo-6-(2-imidazolidinylideneamino)quinoxaline L-tartrate], the Fraction ionized is given as “about 90%”.
